Experimental data from patent US10048254B2, “Cyclic-di-AMP specific detection” (priority 2013, dated 2018).

Key:
CabP [1] = molecular target: T1, CabP (Streptococcus pneumoniae, UniProt A0A0H2ZNB5); assay: Mobility retardation of labeled c-di-AMP in 8% native PAGE gel; format: binding; settings: 30 min at room temperature, FIG. 2B, read-out: affinity constant
Protocol: (§1) The interaction between CabP and c-di-AMP was evaluated by multiple approaches. […] Proteins in the other half gel were transferred onto PVDF membrane and incubated with [α-^32P]c-di-AMP, which we generated from [α-^32P]ATP (MP Biomedicals) using purified Mycobacterium tuberculosis DacA (2). […] We then incubate labeled c-di-AMP with various concentration of CabP in the reaction with 50 mM Tris-HCl (pH7.5), 10 mM MgCl2, 5 mM CaCl2, 5 mM KCl, and 10% (v/v) glycerol. The samples were incubated for 30 min at room temperature and then separated the reactions with 8% native PAGE gel (3). […] However, the mobility of c-di-AMP was not retarded by PdxR (FIG. 2C), indicating the specificity.

M. tuberculosis DacA = M. tuberculosis DacA (Mycobacterium tuberculosis, UniProt P9WNW5); assay: as above; format: binding; settings: purified M. tuberculosis DacA, FIG. 2C
Protocol: as §1

PdxR [2] = assay: Mobility retardation of labeled c-di-AMP in 8% native PAGE gel (control protein); format: binding; settings: FIG. 2C
CabP [3] = molecular target: T1, CabP; assay: Competition of unlabeled nucleotides with labeled c-di-AMP for CabP, native gel; format: binding; settings: 1,000-fold excess of unlabeled nucleotide, 1 μM CabP, FIG. 2D
Protocol: FIGS. 2A-D Interaction of CabP with c-di-AMP. (A) CabP and PdxR (control) were loaded for SDS-PAGE. Gels were either stained with Coomassie Bright Blue (Staining) or blotted with labeled c-di-AMP (Blotting). M, molecular weight marker (Fisher Scientific). (B) Separation of CabP and c-di-AMP reactions with 8% native gel. (C) Mobility of c-di-AMP in the presence or absence of the indicated proteins. (D) Mobility of labeled c-di-AMP mixed with 1 μM CabP in the presence or absence of the indicated unlabeled nucleotides. “cold nt” refers to unlabeled nucleotide.
as §1

biotin-labeled c-di-AMP = assay: Binding of truncated forms of CabP to biotin-labeled c-di-AMP; settings: proteins expressed from pET28a(+)
Source text: To investigate the c-di-AMP binding region of CabP, truncated forms of CabP were expressed and their ability to bind c-di-AMP examined.
Truncated forms included: P1, in which 15 amino acids were removed from the N-terminal of CabP; P2, which results from the removal of 94 amino acid residues from the C-terminal of CabP, thereby eliminating the TrkA_C region; and P3, in which both N- and C-terminal ends of CabP are truncated.
All PCR products were cloned into pET28a(+) to express P1, P2, and P3. These proteins were then used to evaluate their interaction with c-di-AMP.
No binding of P1, P2 or P3 was observed using biotin-labeled c-di-AMP, while binding to intact CabP expressed from pST2788 was normal.

CabP [4] = molecular target: T1, CabP; assay: Blot of SDS-PAGE-separated protein on PVDF membrane incubated with [α-32P]c-di-AMP; format: binding; settings: FIG. 2A
Protocol: as §1

PdxR [5] = format: binding; settings: PdxR control on PVDF membrane, FIG. 2A
CabP [6] = molecular target: T1, CabP; assay: ELISA on CabP-coated plate, optimization of biotin-AHC-c-di-AMP concentration; format: binding
Protocol: The binding of c-di-AMP by CabP is very specific with good affinity, therefore, an ELISA method using a solid support coated with CabP to detect c-di-AMP was developed (FIG. 4). The coating concentration of CabP (Table 1) and the concentration of biotin-AHC-c-di-AMP (Table 2) were optimized.
In one embodiment, a 96-well microtiter plate was coated with CabP at 50 μg/ml in coating buffer (3.03 g/L Na2CO3 and 6.0 g/L NaHCO3), 100 μl/well, sealed and incubated overnight at 4° C.
The coating solution was removed by washing three times, that is, by filling the wells with 200 μl phosphate buffered saline (PBS) containing 0.05% (v/v) polysorbate 20 (TWEEN®-20), and aspirating.
The wells of the microtiter plate were then blocked with a blocking solution (1% BSA in PBS), 100 μl/well, and the plate incubated 1 h at room temperature.
To remove the blocking solution, the plates were washed 3 times with PBS containing 0.05% (v/v) polysorbate 20 (TWEEN®-20). 25 nM biotin-labeled c-di-AMP was diluted in 50 mM Tris-HCl (pH 8.0) or other appropriate media/solution and mixed with two-fold serial diluted standards (from 200 nM to 6.25 nM), or samples prepared within 50 mM Tris-HCl (pH 8.0) or the same media/solution. 100 μl/well, incubate 2 h at room temperature.
The standards and the samples were removed, and the wells washed 3 times with PBS containing 0.05% (v/v) polysorbate 20 (TWEEN®-20).
Streptavidin-HRP (Thermo Scientific) diluted at 1:10,000 with PBS containing 0.05% (v/v) polysorbate 20 (TWEEN®-20), was added to the wells, 100 μl/well, and the plate incubated 1 h at room temperature.
The streptavidin-HRP solution was removed by washing the wells 3 times with PBS containing 0.05% (v/v) polysorbate 20 (TWEEN®-20).
A substrate solution [20 ml 0.1 M citric acid (pH 5.0), 20 μl 30% H2O2, and 10 mg o-phenylenediamine (OPD) (Sigma, 1 tablet)], 100 μl/well, was added to each well. After approximately 30 minutes (typical) or sufficient color development, 100 μl/well stop solution (2 N H2SO4) was added to each well. The absorbance of each well was read with a plate reader at 492 nm.

T1 sequence (A0A0H2ZNB5 whole entry, added parts left off): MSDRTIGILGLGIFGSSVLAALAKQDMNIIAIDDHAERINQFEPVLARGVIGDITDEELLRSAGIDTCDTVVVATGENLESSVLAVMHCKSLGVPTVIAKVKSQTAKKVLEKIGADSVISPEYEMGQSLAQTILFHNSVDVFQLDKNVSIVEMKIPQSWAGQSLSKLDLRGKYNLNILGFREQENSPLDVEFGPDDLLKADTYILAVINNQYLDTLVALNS
M. tuberculosis DacA, sequence (P9WNW5 whole entry): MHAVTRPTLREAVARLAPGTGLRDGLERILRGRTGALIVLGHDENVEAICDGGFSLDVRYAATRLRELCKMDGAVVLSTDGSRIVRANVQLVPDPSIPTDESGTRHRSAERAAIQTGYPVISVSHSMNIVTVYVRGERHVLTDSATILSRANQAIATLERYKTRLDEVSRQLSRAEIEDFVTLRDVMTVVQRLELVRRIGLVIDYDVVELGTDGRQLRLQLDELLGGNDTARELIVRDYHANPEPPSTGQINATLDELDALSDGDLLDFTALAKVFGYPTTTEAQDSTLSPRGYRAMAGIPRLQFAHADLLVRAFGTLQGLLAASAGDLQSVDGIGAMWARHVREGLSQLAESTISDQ

Nc1ncnc2c1ncn2[C@@H]1O[C@@H]2COP(=O)(O)O[C@H]3[C@@H](O)[C@H](n4cnc5c(N)ncnc54)O[C@@H]3COP(=O)(O)O[C@H]2[C@H]1O [c-di-AMP, cyclic di-adenosine monophosphate]
Kd (CabP [1]): ~150 nM | retardation of c-di-AMP mobility (M. tuberculosis DacA): retardation was also observed | retardation of c-di-AMP mobility (PdxR [2]): not retarded | free labeled c-di-AMP in the presence of unlabeled nucleotide (CabP [3]): free c-di-AMP could be observed

CabP
binding to biotin-labeled c-di-AMP (biotin-labeled c-di-AMP): normal

[α-^32P]c-di-AMP [labeled c-di-AMP]
binding of labeled c-di-AMP to blotted protein (CabP [4]): bound | binding of labeled c-di-AMP to blotted protein (PdxR [5]): not

biotin-AHC-c-di-AMP [B-c-di-AMP]
ELISA signal, Binding Buffer (CabP [6]; [B-c-di-AMP] 0.78125): 0.158 | ELISA signal, Binding Buffer (CabP [6]; [B-c-di-AMP] 1.5625): 0.2503 | ELISA signal, Binding Buffer (CabP [6]; [B-c-di-AMP] 3.125): 0.4685 | ELISA signal, Binding Buffer (CabP [6]; [B-c-di-AMP] 6.25): 0.7071 | ELISA signal, Binding Buffer (CabP [6]; [B-c-di-AMP] 12.5): 0.8821 | ELISA signal, Binding Buffer (CabP [6]; [B-c-di-AMP] 25): 1.1813 | ELISA signal, Binding Buffer (CabP [6]; [B-c-di-AMP] 50): 1.352 | ELISA signal, Binding Buffer (CabP [6]; [B-c-di-AMP] 100): 1.4377
